According to ChEMBL document CHEMBL4177648, “Benzofuran-dihydropyridine hybrids: A new class of potential bone anabolic agents” (Bioorg Med Chem, 2017):

Columns and labels:
Calvarial osteoblast [1] = test: Anabolic activity in rat calvarial osteoblasts assessed as induction of alkaline phosphatase activity at 1 pM after 48 hrs in presence of beta-glycerophosphate and ascorbic acid by p-nitrophenyl phosphate substrate based assay (reference value: 1 to 1.21); assay type: functional
Calvarial osteoblast [2] = test: Anabolic activity in rat calvarial osteoblasts assessed as induction of alkaline phosphatase activity at 1 uM after 48 hrs in presence of beta-glycerophosphate and ascorbic acid by p-nitrophenyl phosphate substrate based assay (reference value: 1 to 1.21); assay type: functional
Calvarial osteoblast [3] = test: Anabolic activity in rat calvarial osteoblasts assessed as induction of alkaline phosphatase activity at 10 nM after 48 hrs in presence of beta-glycerophosphate and ascorbic acid by p-nitrophenyl phosphate substrate based assay (reference value: 1 to 1.21); assay type: functional
Calvarial osteoblast [4] = test: Anabolic activity in rat calvarial osteoblasts assessed as induction of alkaline phosphatase activity at 100 pM after 48 hrs in presence of beta-glycerophosphate and ascorbic acid by p-nitrophenyl phosphate substrate based assay (reference value: 1 to 1.21); assay type: functional
Calvarial osteoblast [5] = test: Anabolic activity in rat calvarial osteoblasts assessed as induction of alkaline phosphatase activity at 100 uM after 48 hrs in presence of beta-glycerophosphate and ascorbic acid by p-nitrophenyl phosphate substrate based assay (reference value: 1 to 1.21); assay type: functional
Calvarial osteoblast [6] = test: Anabolic activity in rat calvarial osteoblasts assessed as induction of alkaline phosphatase activity after 48 hrs in presence of beta-glycerophosphate and ascorbic acid by p-nitrophenyl phosphate substrate based assay; assay type: functional, cell-based

Question: For `CCOC(=O)C1=C(C)NC2=C(C(=O)CCC2)C1c1ccccc1` (stereo unspecified), which OD (Calvarial osteoblast [1]) is on record?
Answer: Its OD is 1.26.

Question: And the OD (Calvarial osteoblast [2])?
Answer: Its OD is 1.44.

Question: And the OD (Calvarial osteoblast [3])?
Answer: The OD was 1.43.

Question: What about the OD (Calvarial osteoblast [4]) of the same compound?
Answer: The OD was 1.25.

Question: And the OD (Calvarial osteoblast [5])?
Answer: The OD was 0.74.

Question: Which results are given for `CCC(C)c1cc(C=O)cc2cc(C(=O)c3ccc(Cl)cc3)oc12` (stereo unspecified)?
Answer: OD (Calvarial osteoblast [1]): 0.98; OD (Calvarial osteoblast [2]): 0.77; OD (Calvarial osteoblast [3]): 0.96; OD (Calvarial osteoblast [4]): 0.78; OD (Calvarial osteoblast [5]): 0.26

Question: Which results are given for `CCOC(=O)C1=C(C)NC2=C(C(=O)CCC2)C1c1cc(C(C)CC)c2oc(C(=O)c3ccc(Cl)cc3)cc2c1` (stereo unspecified)?
Answer: OD (Calvarial osteoblast [1]): 0.9; OD (Calvarial osteoblast [2]): 0.79; OD (Calvarial osteoblast [3]): 1.04; OD (Calvarial osteoblast [4]): 1.02; OD (Calvarial osteoblast [5]): 0.31

Question: `COC(=O)C1=C(C)NC2=C(C(=O)CC(C)(C)C2)C1c1cc(C(C)(C)C)c2oc(C(=O)c3ccc(OC)cc3)cc2c1` (stereo unspecified) was tested. Which OD (Calvarial osteoblast [1]) did it give?
Answer: The OD was 0.79.

Question: What about the OD (Calvarial osteoblast [2]) of the same compound?
Answer: Its OD is 1.25.

Question: What about the OD (Calvarial osteoblast [3]) of the same compound?
Answer: The OD was 1.1.

Question: What about the OD (Calvarial osteoblast [4]) of the same compound?
Answer: Its OD is 1.15.

Question: And the OD (Calvarial osteoblast [5])?
Answer: Its OD is 0.36.

Question: What does the source list for `CCOC(=O)C1=C(C)NC2=C(C(=O)CC(C)(C)C2)C1c1cc(CC)c2oc(C(=O)c3ccc(OC)cc3)cc2c1` (stereo unspecified)?
Answer: OD (Calvarial osteoblast [1]): 1.24; OD (Calvarial osteoblast [2]): 1.72; OD (Calvarial osteoblast [3]): 1.65; OD (Calvarial osteoblast [4]): 1.45; OD (Calvarial osteoblast [5]): 0.5

Question: What does the source list for `CCC(C)c1cc(C2C(C(=O)OC)=C(C)NC3=C2C(=O)CC(C)(C)C3)cc2cc(C(=O)c3ccc(C)cc3)oc12` (stereo unspecified)?
Answer: OD (Calvarial osteoblast [1]): 1.08; OD (Calvarial osteoblast [2]): 1.13; OD (Calvarial osteoblast [3]): 1.11; OD (Calvarial osteoblast [4]): 1.16; OD (Calvarial osteoblast [5]): 0.37

Question: `CCC(C)c1cc(C2C(C(=O)OC)=C(C)NC3=C2C(=O)CCC3)cc2cc(C(=O)c3ccc(Cl)cc3)oc12` (stereo unspecified) was tested. Which OD (Calvarial osteoblast [1]) did it give?
Answer: Its OD is 1.39.

Question: What about the OD (Calvarial osteoblast [2]) of the same compound?
Answer: Its OD is 1.31.

Question: And the OD (Calvarial osteoblast [3])?
Answer: The OD was 1.34.

Question: What about the OD (Calvarial osteoblast [4]) of the same compound?
Answer: Its OD is 1.48.

Question: And the OD (Calvarial osteoblast [5])?
Answer: Its OD is 0.5.

Question: How did the OD (Calvarial osteoblast [1]) turn out when `CCOC(=O)C1=C(C)NC2=C(C(=O)CC(C)(C)C2)C1c1cc(C(C)CC)c2oc(C(=O)c3ccc(OC)cc3)cc2c1` (stereo unspecified) was run?
Answer: The OD was 1.08.

Question: And the OD (Calvarial osteoblast [2])?
Answer: Its OD is 1.13.

Question: What about the OD (Calvarial osteoblast [3]) of the same compound?
Answer: Its OD is 1.3.

Question: And the OD (Calvarial osteoblast [4])?
Answer: Its OD is 0.82.

Question: And the OD (Calvarial osteoblast [5])?
Answer: Its OD is 0.51.

Question: How did the OD (Calvarial osteoblast [1]) turn out when `CCC(C)c1cc(C2C(C(=O)OC)=C(C)NC3=C2C(=O)CC(C)(C)C3)cc2cc(C(=O)c3ccc(Cl)cc3)oc12` (stereo unspecified) was run?
Answer: Its OD is 1.08.

Question: And the OD (Calvarial osteoblast [2])?
Answer: The OD was 0.23.

Question: What about the OD (Calvarial osteoblast [3]) of the same compound?
Answer: The OD was 0.86.

Question: What about the OD (Calvarial osteoblast [4]) of the same compound?
Answer: Its OD is 0.85.

Question: And the OD (Calvarial osteoblast [5])?
Answer: Its OD is 0.23.

Question: `CCC(C)c1cc(C=O)cc2cc(C(=O)c3ccc(C)cc3)oc12` (stereo unspecified) was tested. Which OD (Calvarial osteoblast [1]) did it give?
Answer: Its OD is 1.23.

Question: And the OD (Calvarial osteoblast [2])?
Answer: Its OD is 1.42.

Question: And the OD (Calvarial osteoblast [3])?
Answer: The OD was 1.41.

Question: And the OD (Calvarial osteoblast [4])?
Answer: Its OD is 1.16.

Question: And the OD (Calvarial osteoblast [5])?
Answer: Its OD is 0.3.

Question: What about the EC50 (Calvarial osteoblast [6]) of the same compound?
Answer: The EC50 was 31.4 nM.

Question: What does the source list for `CCC(C)c1cc(C2C(C(=O)OC)=C(C)NC3=C2C(=O)CCC3)cc2cc(C(=O)c3ccc([N+](=O)[O-])cc3)oc12` (stereo unspecified)?
Answer: OD (Calvarial osteoblast [1]): 0.65; OD (Calvarial osteoblast [2]): 0.82; OD (Calvarial osteoblast [3]): 0.82; OD (Calvarial osteoblast [4]): 0.72; OD (Calvarial osteoblast [5]): 0.25

Question: `CCOC(=O)C1=C(C)NC2=C(C(=O)CC(C)(C)C2)C1c1cc(C(C)(C)C)c2oc(C(=O)c3ccc(OC)cc3)cc2c1` (stereo unspecified) was tested. Which OD (Calvarial osteoblast [1]) did it give?
Answer: The OD was 1.04.

Question: And the OD (Calvarial osteoblast [2])?
Answer: Its OD is 1.15.

Question: What about the OD (Calvarial osteoblast [3]) of the same compound?
Answer: The OD was 1.47.

Question: What about the OD (Calvarial osteoblast [4]) of the same compound?
Answer: Its OD is 1.53.

Question: And the OD (Calvarial osteoblast [5])?
Answer: The OD was 0.36.

Question: `CCOC(=O)C1=C(C)NC2=C(C(=O)CC(C)(C)C2)C1c1ccccc1` (stereo unspecified) was tested. Which OD (Calvarial osteoblast [1]) did it give?
Answer: The OD was 1.03.

Question: And the OD (Calvarial osteoblast [2])?
Answer: Its OD is 1.23.

Question: And the OD (Calvarial osteoblast [3])?
Answer: Its OD is 1.41.

Question: And the OD (Calvarial osteoblast [4])?
Answer: Its OD is 1.41.

Question: And the OD (Calvarial osteoblast [5])?
Answer: Its OD is 0.58.

Question: Which OD (Calvarial osteoblast [1]) does the source give for `CCC(C)c1cc(C=O)cc2cc(C(=O)c3ccc([N+](=O)[O-])cc3)oc12` (stereo unspecified) here?
Answer: Its OD is 1.04.

Question: And the OD (Calvarial osteoblast [2])?
Answer: The OD was 1.08.

Question: What about the OD (Calvarial osteoblast [3]) of the same compound?
Answer: Its OD is 0.73.

Question: What about the OD (Calvarial osteoblast [4]) of the same compound?
Answer: The OD was 0.66.

Question: What about the OD (Calvarial osteoblast [5]) of the same compound?
Answer: Its OD is 0.31.
